This passage reports DC50 results from US20240343733A1, “COMPOUNDS FOR TARGETING DEGRADATION OF IRAK4 PROTEINS” (BIOGEN MA INC., priority 2021, published 2024).

Some results are limits rather than exact numbers.

In general, DC50 refers to the midpoint of the concentration-degradation curve. Higher therefore signals degradation only at high concentration.

The experiment addresses T1, IRAK4 (Homo sapiens, UniProt Q9NWZ3).
T1 construct: 293Tcells expressing HiBiT-tagged IRAK4 were then added into 384-well plates
T1 sequence (Q9NWZ3 1-460): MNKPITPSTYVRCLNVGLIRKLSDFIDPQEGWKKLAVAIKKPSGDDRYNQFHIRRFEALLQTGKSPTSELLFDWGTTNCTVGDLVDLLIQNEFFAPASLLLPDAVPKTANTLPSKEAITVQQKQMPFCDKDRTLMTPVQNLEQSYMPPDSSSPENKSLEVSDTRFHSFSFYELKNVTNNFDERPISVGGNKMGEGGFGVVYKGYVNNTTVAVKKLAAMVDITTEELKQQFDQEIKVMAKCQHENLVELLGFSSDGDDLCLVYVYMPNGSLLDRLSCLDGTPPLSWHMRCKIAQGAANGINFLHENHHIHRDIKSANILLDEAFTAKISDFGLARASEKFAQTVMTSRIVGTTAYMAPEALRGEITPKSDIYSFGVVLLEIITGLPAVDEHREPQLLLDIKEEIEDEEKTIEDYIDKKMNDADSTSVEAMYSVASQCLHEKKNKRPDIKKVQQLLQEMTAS
Description: IRAK4 Degradation Assay, HiBiT Method. It counts as cell-based. As to conditions: 293T cells expressing HiBiT-tagged IRAK4, 6 hours. Put shortly:
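293T cells with HiBiT knocked in at the C-terminus of endogenous IRAK4, 10,000 per well, treated 6 h at 37 °C with an 11-point half-log series ([…]), in duplicate. Remaining IRAK4 read by Nano-Glo HiBiT lytic luminescence against DMSO-only and media-only controls.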
In turn, `CC(C)Oc1cc2nn([C@H]3CC[C@H](CN4CCOC[C@H]4Cc4ccc(OC5CCC(=O)NC5=O)cc4)CC3)cc2cc1C(=O)Nc1cccn(C2CC2)c1=O` (stereo partly drawn) [Example 127, N-(1-cyclopropyl-2-oxo-1,2-dihydropyridin-3-yl)-2-((S,4r)-4-(((3S)-3-(4-((2,6-dioxopiperidin-3-yl)oxy)benzyl)morpholino)methyl)cyclohexyl)-6-isopropoxy-2H-indazole-5-carboxamide] came in with a DC50 of 10 to 100 nM.

In turn, `CC(C)Oc1cc2nn([C@H]3CC[C@H](CN4CCC(c5cc6c(cc5F)c(N5CCC(=O)NC5=O)nn6C)CC4)CC3)cc2cc1C(=O)Nc1cccn([C@H]2C[C@H]2F)c1=O` [Example 130, 2-((1r,4S)-4-((4-(3-(2,4-dioxotetrahydropyrimidin-1(2H)-yl)-5-fluoro-1-methyl-1H-indazol-6-yl)piperidin-1-yl)methyl)cyclohexyl)-N-(1-((1S,2R)-2-fluorocyclopropyl)-2-oxo-1,2-dihydropyridin-3-yl)-6-isopropoxy-2H-indazole-5-carboxamide] registered a DC50 of under 10 nM.

The compound `CC(C)Oc1cc2nn([C@H]3CC[C@H](CN4CCOC[C@@H]4Cc4ccc(OC5CCC(=O)NC5=O)cc4)CC3)cc2cc1C(=O)Nc1cnn2cccnc12` (stereo partly drawn) [Example 131, 2-((1R,4r)-4-(((3R)-3-(4-((2,6-dioxopiperidin-3-yl)oxy)benzyl)morpholino)methyl)cyclohexyl)-6-isopropoxy-N-(pyrazolo[1,5-a]pyrimidin-3-yl)-2H-indazole-5-carboxamide] gave a DC50 of 10 to 100 nM.

`CC(C)Oc1cc2nn([C@H]3CC[C@H](CN4CC[C@@H](c5ccc6c(N7CCC(=O)NC7=O)nn(C)c6c5)[C@H](O)C4)CC3)cc2cc1C(=O)Nc1cccn([C@H]2C[C@H]2F)c1=O` [Example 132, 2-((1S,4S)-4-(((3S,4S)-4-(3-(2,4-dioxotetrahydropyrimidin-1(2H)-yl)-1-methyl-1H-indazol-6-yl)-3-hydroxypiperidin-1-yl)methyl)cyclohexyl)-N-(1-((1S,2R)-2-fluorocyclopropyl)-2-oxo-1,2-dihydropyridin-3-yl)-6-isopropoxy-2H-indazole-5-carboxamide]: the DC50 is under 10 nM.

With `CC(C)Oc1cc2nn([C@H]3CC[C@H](CN4CC[C@@H](c5ccc6c(C7CCC(=O)NC7=O)nn(C)c6c5)[C@@H](O)C4)CC3)cc2cc1C(=O)Nc1cccn([C@H]2C[C@H]2F)c1=O` (stereo partly drawn) [Example 133, 2-((1R,4S)-4-(((3R,4S)-4-(3-(2,6-dioxopiperidin-3-yl)-1-methyl-1H-indazol-6-yl)-3-hydroxypiperidin-1-yl)methyl)cyclohexyl)-N-(1-((1S,2R)-2-fluorocyclopropyl)-2-oxo-1,2-dihydropyridin-3-yl)-6-isopropoxy-2H-indazole-5-carboxamide], the DC50 is under 10 nM.

The compound `CO[C@H]1CN(C[C@H]2CC[C@H](n3cc4cc(C(=O)Nc5cccn([C@H]6C[C@H]6F)c5=O)c(OC(C)C)cc4n3)CC2)CC[C@H]1c1ccc2c(N3CCC(=O)NC3=O)nn(C)c2c1` [Example 134, 2-((1R,4S)-4-(((3R,4S)-4-(3-(2,4-dioxotetrahydropyrimidin-1(2H)-yl)-1-methyl-1H-indazol-6-yl)-3-methoxypiperidin-1-yl)methyl)cyclohexyl)-N-(1-((1S,2R)-2-fluorocyclopropyl)-2-oxo-1,2-dihydropyridin-3-yl)-6-isopropoxy-2H-indazole-5-carboxamide] gave a DC50 of under 10 nM.

`CC(C)Oc1cc2nn([C@H]3CC[C@H](CN4CCOC[C@@H]4Cc4ccc(OC5CCC(=O)NC5=O)cc4)CC3)cc2cc1C(=O)Nc1cccn([C@H]2C[C@H]2F)c1=O` (stereo partly drawn) [Example 135, 2-((1S,4S)-4-(((3S)-3-(4-((2,6-dioxopiperidin-3-yl)oxy)benzyl)morpholino)methyl)cyclohexyl)-N-(1-((1S,2R)-2-fluorocyclopropyl)-2-oxo-1,2-dihydropyridin-3-yl)-6-isopropoxy-2H-indazole-5-carboxamide] came in with a DC50 of under 10 nM.

On to `CC(C)Oc1cc2nn([C@H]3CC[C@H](CN4CC[C@@H](c5ncc(NC6CCC(=O)NC6=O)cc5F)[C@H](O)C4)CC3)cc2cc1C(=O)Nc1cccn([C@H]2C[C@H]2F)c1=O` (stereo partly drawn) [Example 136, 2-((1S,4S)-4-(((3S,4S)-4-(5-((2,6-dioxopiperidin-3-yl)amino)-3-fluoropyridin-2-yl)-3-hydroxypiperidin-1-yl)methyl)cyclohexyl)-N-(1-((1S,2R)-2-fluorocyclopropyl)-2-oxo-1,2-dihydropyridin-3-yl)-6-isopropoxy-2H-indazole-5-carboxamide], for which the DC50 is under 10 nM.

`CC(C)Oc1cc2nn([C@H]3CC[C@H](CN4CCC(c5ccc6c(c5)n(C)c(=O)n6C5CCC(=O)NC5=O)CC4)CC3)cc2cc1C(=O)Nc1cccn([C@H]2C[C@H]2F)c1=O` (stereo partly drawn) [Example 137, 2-((1r,4S)-4-((4-(1-(2,6-dioxopiperidin-3-yl)-3-methyl-2-oxo-2,3-dihydro-1H-benzo[d]imidazol-5-yl)piperidin-1-yl)methyl)cyclohexyl)-N-(1-((1S,2R)-2-fluorocyclopropyl)-2-oxo-1,2-dihydropyridin-3-yl)-6-isopropoxy-2H-indazole-5-carboxamide] registered a DC50 of under 10 nM.

The compound `CC(C)Oc1cc2nn([C@H]3CC[C@H](CN[C@@H]4CC[C@H](c5ccc6c(N7CCC(=O)NC7=O)nn(C)c6c5)[C@H](O)C4)CC3)cc2cc1C(=O)Nc1cccn([C@H]2C[C@H]2F)c1=O` [Example 138, 2-((1R,4S)-4-((((1R,3R,4R)-4-(3-(2,4-dioxotetrahydropyrimidin-1(2H)-yl)-1-methyl-1H-indazol-6-yl)-3-hydroxycyclohexyl)amino)methyl)cyclohexyl)-N-(1-((1S,2R)-2-fluorocyclopropyl)-2-oxo-1,2-dihydropyridin-3-yl)-6-isopropoxy-2H-indazole-5-carboxamide] showed a DC50 of under 10 nM.

The compound `CC(C)Oc1cc2nn([C@H]3CC[C@H](CN4CCCCC4Cc4ccc(OC5CCC(=O)NC5=O)cc4)CC3)cc2cc1C(=O)Nc1cccn([C@H]2C[C@H]2F)c1=O` (stereo partly drawn) [Example 139, 2-((1r,4S)-4-((2-(4-((2,6-dioxopiperidin-3-yl)oxy)benzyl)piperidin-1-yl)methyl)cyclohexyl)-N-(1-((1S,2R)-2-fluorocyclopropyl)-2-oxo-1,2-dihydropyridin-3-yl)-6-isopropoxy-2H-indazole-5-carboxamide] came in with a DC50 of under 10 nM.

For `CO[C@H]1CN(C[C@H]2CC[C@H](n3cc4cc(C(=O)Nc5cccn(C6CC6)c5=O)c(OC(C)C)cc4n3)CC2)CC[C@H]1c1ccc2c(N3CCC(=O)NC3=O)nn(C)c2c1` [Example 140, N-(1-cyclopropyl-2-oxo-1,2-dihydropyridin-3-yl)-2-((1R,4r)-4-(((3R,4S)-4-(3-(2,4-dioxotetrahydropyrimidin-1(2H)-yl)-1-methyl-1H-indazol-6-yl)-3-methoxypiperidin-1-yl)methyl)cyclohexyl)-6-isopropoxy-2H-indazole-5-carboxamide], the DC50 is under 10 nM.

With `CC(C)Oc1cc2nn([C@H]3CC[C@H](CN4CCC(c5ccc(OC6CCC(=O)NC6=O)cc5)CC4)CC3)cc2cc1C(=O)Nc1cccn([C@H]2C[C@H]2F)c1=O` (stereo partly drawn) [Example 141, 2-((1r,4S)-4-((4-(4-((2,6-dioxopiperidin-3-yl)oxy)phenyl)piperidin-1-yl)methyl)cyclohexyl)-N-(1-((1S,2R)-2-fluorocyclopropyl)-2-oxo-1,2-dihydropyridin-3-yl)-6-isopropoxy-2H-indazole-5-carboxamide], the DC50 is under 10 nM.

For `CC(C)Oc1cc2nn([C@H]3CC[C@H](CN4CCC(c5ccc6c(N7CCC(=O)NC7=O)nn(C)c6c5)CC4)CC3)cc2cc1C(=O)Nc1cccn([C@H]2C[C@H]2F)c1=O` [Example 144, 2-((1r,4S)-4-((4-(3-(2,4-dioxotetrahydropyrimidin-1(2H)-yl)-1-methyl-1H-indazol-6-yl)piperidin-1-yl)methyl)cyclohexyl)-N-(1-((1S,2R)-2-fluorocyclopropyl)-2-oxo-1,2-dihydropyridin-3-yl)-6-isopropoxy-2H-indazole-5-carboxamide], the DC50 is under 10 nM.

Compound `CC(C)Oc1cc2nn([C@H]3CC[C@H](CN4CCN(c5ccc6c(N7CCC(=O)NC7=O)cnn6c5)CC4)CC3)cc2cc1C(=O)Nc1cccn([C@H]2C[C@H]2F)c1=O` [Example 145, 2-((1r,4S)-4-((4-(3-(2,4-dioxotetrahydropyrimidin-1(2H)-yl)pyrazolo[1,5-a]pyridin-6-yl)piperazin-1-yl)methyl)cyclohexyl)-N-(1-((1S,2R)-2-fluorocyclopropyl)-2-oxo-1,2-dihydropyridin-3-yl)-6-isopropoxy-2H-indazole-5-carboxamide] gave a DC50 of under 10 nM.

Regarding `CC(C)Oc1cc2nn([C@H]3CC[C@H](CN4CCN(c5ccn6c(N7CCC(=O)NC7=O)cnc6c5)CC4)CC3)cc2cc1C(=O)Nc1cccn([C@H]2C[C@H]2F)c1=O` [Example 146, 2-((1r,4S)-4-((4-(3-(2,4-dioxotetrahydropyrimidin-1(2H)-yl)imidazo[1,2-a]pyridin-7-yl)piperazin-1-yl)methyl)cyclohexyl)-N-(1-((1S,2R)-2-fluorocyclopropyl)-2-oxo-1,2-dihydropyridin-3-yl)-6-isopropoxy-2H-indazole-5-carboxamide], the half-maximal degradation concentration (DC50) was under 10 nM.
